The text below walks through data of ChEMBL document CHEMBL2040736, “Design of potent and selective hybrid inhibitors of the mitotic kinase Nek2: structure-activity relationship, structural biology, and cellular activity” (J Med Chem, 2012).

Experiment [1] has as its target Ribosomal protein S6 kinase alpha-5 (Homo sapiens) (UniProt O75582). Nature of the experiment: Inhibition of MSK1 at 1 uM incubated for 30 mins prior to substrate addition study done at apparent ATP Km for enzyme.
Experiment [2] deals with T1, Dual specificity protein kinase TTK (Homo sapiens, UniProt P33981).
T1 sequence (P33981 whole entry): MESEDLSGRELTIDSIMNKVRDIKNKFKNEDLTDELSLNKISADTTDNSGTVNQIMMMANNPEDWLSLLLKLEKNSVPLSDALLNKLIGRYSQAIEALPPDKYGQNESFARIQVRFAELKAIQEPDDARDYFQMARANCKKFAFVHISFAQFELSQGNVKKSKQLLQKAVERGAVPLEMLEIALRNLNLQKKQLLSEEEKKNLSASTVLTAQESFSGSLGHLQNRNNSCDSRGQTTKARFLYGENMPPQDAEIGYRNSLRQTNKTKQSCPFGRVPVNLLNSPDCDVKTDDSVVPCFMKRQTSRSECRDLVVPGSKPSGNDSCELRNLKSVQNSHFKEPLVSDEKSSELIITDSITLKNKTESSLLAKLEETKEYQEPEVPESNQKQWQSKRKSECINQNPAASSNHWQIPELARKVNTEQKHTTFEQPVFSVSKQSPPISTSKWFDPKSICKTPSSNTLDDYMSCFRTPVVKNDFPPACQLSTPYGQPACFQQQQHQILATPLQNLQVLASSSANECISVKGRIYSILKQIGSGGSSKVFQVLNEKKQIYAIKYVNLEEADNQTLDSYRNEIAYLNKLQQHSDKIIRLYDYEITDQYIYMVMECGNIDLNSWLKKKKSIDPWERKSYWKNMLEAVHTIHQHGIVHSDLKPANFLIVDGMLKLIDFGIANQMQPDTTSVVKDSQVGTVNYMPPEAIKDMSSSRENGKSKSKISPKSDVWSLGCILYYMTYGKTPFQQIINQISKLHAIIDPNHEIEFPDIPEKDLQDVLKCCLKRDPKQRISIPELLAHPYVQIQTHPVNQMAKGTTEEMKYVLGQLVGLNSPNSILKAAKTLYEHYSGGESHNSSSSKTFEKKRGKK
The experiment can be described thus: Inhibition of MPS1 by caliper method.

Experiment [3] addresses Mitogen-activated protein kinase 1 (Homo sapiens) (UniProt P28482). Nature of the experiment: Inhibition of Erk2 at 1 uM incubated for 30 mins prior to substrate addition study done at apparent ATP Km for enzyme.
In experiment [4] the target is Cyclin-dependent kinase 2 (Homo sapiens, UniProt P24941). The experiment can be described thus: Inhibition of CDK2 by caliper method.
Experiment [5] has as its target Serine/threonine-protein kinase PLK1 (Homo sapiens, UniProt P53350). Nature of the experiment: Inhibition of Plk1 using 5-FAMRRRAGALMDASFEEQ- CONH2 as substrate after 75 mins by caliper method.
Experiment [6] is described as follows: Inhibition of PKA at 1 uM incubated for 30 mins prior to substrate addition study done at apparent ATP Km for enzyme.
Experiment [7] deals with RAC-beta serine/threonine-protein kinase (Homo sapiens) (UniProt P31751). The experiment can be described thus: Inhibition of AKT2 at 1 uM incubated for 30 mins prior to substrate addition study done at apparent ATP Km for enzyme.
Chain of RAC-beta serine/threonine-protein kinase (Homo sapiens) (P31751 whole entry): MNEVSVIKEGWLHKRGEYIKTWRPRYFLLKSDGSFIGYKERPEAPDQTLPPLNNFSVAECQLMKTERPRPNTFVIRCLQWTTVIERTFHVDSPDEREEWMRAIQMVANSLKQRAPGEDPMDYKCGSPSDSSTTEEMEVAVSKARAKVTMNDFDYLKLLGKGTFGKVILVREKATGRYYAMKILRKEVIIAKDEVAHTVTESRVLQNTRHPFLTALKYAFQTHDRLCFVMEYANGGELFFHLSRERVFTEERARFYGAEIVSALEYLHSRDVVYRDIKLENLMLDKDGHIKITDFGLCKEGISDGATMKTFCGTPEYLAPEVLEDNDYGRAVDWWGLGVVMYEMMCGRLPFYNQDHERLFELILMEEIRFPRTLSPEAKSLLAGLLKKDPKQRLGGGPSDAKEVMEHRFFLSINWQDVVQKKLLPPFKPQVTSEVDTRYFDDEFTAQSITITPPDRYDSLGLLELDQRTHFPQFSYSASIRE
In experiment [8] the target is Aurora kinase A (Homo sapiens) (UniProt O14965). The following applies: 1 uM.
Chain of Aurora kinase A (Homo sapiens) (O14965 whole entry): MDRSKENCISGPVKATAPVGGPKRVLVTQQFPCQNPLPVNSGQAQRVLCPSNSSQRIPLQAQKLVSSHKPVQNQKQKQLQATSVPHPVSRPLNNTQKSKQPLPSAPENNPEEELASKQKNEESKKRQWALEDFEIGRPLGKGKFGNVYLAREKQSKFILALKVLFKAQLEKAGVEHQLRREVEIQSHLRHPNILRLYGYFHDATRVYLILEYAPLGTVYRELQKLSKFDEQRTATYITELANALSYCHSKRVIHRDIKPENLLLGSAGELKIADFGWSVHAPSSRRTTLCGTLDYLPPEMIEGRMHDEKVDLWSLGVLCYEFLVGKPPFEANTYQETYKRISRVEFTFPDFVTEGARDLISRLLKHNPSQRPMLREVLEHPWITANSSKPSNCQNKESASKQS
The target in experiment [9] is Proto-oncogene tyrosine-protein kinase Src (Homo sapiens, UniProt P12931). The experiment can be described thus: Inhibition of SRC incubated for 30 mins prior to substrate addition study done at apparent ATP Km for enzyme.
Chain of Proto-oncogene tyrosine-protein kinase Src (P12931 2-536 limits assumed): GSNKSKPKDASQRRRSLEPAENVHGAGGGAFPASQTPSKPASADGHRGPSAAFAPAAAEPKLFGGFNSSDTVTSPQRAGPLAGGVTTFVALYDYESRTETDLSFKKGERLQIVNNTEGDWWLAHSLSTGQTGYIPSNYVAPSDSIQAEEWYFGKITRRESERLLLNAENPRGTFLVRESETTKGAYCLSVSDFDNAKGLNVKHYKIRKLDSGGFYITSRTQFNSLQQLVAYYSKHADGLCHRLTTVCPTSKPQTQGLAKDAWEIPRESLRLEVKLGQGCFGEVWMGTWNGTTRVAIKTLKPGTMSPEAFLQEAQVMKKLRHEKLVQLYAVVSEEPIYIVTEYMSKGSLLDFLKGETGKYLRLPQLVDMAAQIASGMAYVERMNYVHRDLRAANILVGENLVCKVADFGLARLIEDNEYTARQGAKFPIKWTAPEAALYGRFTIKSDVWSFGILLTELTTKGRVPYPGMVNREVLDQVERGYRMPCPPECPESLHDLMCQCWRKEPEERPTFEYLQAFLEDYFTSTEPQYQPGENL
The target in experiment [10] is Tyrosine-protein kinase Lck (Homo sapiens, UniProt P06239). Nature of the experiment: Inhibition of LCK at 1 uM incubated for 30 mins prior to substrate addition study done at apparent ATP Km for enzyme.
Chain of Tyrosine-protein kinase Lck (P06239 2-509 limits assumed): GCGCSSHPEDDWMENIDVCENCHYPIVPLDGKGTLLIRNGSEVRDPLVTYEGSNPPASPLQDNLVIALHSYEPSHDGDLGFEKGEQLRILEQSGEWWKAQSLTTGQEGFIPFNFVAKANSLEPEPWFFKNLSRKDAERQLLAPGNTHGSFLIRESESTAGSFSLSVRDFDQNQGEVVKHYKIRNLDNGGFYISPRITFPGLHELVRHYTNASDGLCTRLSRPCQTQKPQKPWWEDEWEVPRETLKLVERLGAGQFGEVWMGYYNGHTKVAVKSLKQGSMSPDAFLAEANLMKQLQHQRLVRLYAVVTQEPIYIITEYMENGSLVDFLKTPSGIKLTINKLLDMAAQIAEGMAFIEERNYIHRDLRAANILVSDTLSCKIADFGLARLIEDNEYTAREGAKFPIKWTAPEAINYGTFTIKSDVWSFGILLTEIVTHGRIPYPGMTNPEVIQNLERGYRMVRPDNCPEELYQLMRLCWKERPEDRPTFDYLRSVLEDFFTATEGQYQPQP
Experiment [11] has as its target Ribosomal protein S6 kinase alpha-1 (Homo sapiens) (UniProt Q15418). Nature of the experiment: Inhibition of RSK1 at 1 uM incubated for 30 mins prior to substrate addition study done at apparent ATP Km for enzyme.
The subject of another experiment is MCF7. The experiment can be described thus: Growth inhibition of human MCF7 cells after 92 hrs by CellTiter-Blue assay. It is filed as functional. Conditions: MCF7, 92 h. A general note: Resazurin is reduced to fluorescent resorufin, in cell work by metabolically active cells.
Experiment [12] addresses Glycogen synthase kinase-3 beta (Homo sapiens, UniProt P49841). Nature of the experiment: Inhibition of GSK3beta at 1 uM incubated for 30 mins prior to substrate addition study done at apparent ATP Km for enzyme.
Experiment [13] concerns the target Hepatocyte growth factor receptor (Homo sapiens, UniProt P08581). Conditions: 1 uM.

Molecules are shown by their SMILES.

In general, inhibition refers to the drop in the measured response relative to a control, in per cent. Usually IC50 stands for the concentration that inhibits the measured activity by half. One may read the GI50 as the concentration at which growth is held to half of that of the control. A lower GI50 goes with greater sensitivity of the cells.

Chain of Glycogen synthase kinase-3 beta (P49841 whole entry, looked up): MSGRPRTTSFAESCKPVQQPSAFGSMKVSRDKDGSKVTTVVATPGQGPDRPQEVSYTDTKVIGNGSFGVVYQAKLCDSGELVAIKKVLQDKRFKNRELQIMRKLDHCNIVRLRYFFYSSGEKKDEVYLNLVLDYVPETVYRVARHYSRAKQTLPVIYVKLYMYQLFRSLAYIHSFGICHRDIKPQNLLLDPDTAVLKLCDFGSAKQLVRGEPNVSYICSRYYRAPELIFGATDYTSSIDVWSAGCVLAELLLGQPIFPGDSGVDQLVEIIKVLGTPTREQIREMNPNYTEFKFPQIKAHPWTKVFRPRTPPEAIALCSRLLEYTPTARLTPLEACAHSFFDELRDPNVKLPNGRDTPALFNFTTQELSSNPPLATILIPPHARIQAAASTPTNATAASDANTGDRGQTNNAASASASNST
Chain of Ribosomal protein S6 kinase alpha-5 (Homo sapiens) (O75582 whole entry, looked up): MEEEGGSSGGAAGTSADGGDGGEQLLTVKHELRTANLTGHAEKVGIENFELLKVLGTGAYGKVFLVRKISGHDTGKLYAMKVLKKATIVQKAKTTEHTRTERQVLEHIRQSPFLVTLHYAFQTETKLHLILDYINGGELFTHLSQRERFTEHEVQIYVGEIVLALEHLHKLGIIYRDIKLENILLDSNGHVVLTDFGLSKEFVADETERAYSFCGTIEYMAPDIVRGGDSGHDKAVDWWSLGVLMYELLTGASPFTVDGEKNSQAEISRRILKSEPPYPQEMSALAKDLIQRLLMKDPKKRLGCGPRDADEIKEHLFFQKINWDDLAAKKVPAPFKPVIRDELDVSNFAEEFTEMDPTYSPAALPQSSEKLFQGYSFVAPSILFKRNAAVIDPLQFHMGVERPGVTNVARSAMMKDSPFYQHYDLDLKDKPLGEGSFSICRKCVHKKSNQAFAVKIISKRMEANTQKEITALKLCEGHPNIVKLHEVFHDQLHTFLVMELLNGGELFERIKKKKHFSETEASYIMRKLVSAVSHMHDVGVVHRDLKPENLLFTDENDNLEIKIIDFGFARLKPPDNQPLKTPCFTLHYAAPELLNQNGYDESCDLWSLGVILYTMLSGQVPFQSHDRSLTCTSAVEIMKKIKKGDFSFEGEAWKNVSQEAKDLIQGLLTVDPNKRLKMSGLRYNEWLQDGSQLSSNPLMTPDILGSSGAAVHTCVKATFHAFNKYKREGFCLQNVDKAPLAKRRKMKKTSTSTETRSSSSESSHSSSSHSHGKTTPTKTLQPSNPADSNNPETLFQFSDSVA
Chain of Mitogen-activated protein kinase 1 (Homo sapiens) (P28482 whole entry): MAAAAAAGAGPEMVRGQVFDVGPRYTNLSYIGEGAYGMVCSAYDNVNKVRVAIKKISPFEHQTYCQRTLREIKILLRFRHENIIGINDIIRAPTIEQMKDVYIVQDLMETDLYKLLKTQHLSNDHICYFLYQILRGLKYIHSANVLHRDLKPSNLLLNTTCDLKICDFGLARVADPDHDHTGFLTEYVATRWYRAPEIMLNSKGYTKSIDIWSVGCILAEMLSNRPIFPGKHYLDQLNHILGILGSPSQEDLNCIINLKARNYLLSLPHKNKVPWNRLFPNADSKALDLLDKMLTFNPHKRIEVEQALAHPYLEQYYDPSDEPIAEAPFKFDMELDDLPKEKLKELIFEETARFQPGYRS
Chain of Ribosomal protein S6 kinase alpha-1 (Homo sapiens) (Q15418 whole entry): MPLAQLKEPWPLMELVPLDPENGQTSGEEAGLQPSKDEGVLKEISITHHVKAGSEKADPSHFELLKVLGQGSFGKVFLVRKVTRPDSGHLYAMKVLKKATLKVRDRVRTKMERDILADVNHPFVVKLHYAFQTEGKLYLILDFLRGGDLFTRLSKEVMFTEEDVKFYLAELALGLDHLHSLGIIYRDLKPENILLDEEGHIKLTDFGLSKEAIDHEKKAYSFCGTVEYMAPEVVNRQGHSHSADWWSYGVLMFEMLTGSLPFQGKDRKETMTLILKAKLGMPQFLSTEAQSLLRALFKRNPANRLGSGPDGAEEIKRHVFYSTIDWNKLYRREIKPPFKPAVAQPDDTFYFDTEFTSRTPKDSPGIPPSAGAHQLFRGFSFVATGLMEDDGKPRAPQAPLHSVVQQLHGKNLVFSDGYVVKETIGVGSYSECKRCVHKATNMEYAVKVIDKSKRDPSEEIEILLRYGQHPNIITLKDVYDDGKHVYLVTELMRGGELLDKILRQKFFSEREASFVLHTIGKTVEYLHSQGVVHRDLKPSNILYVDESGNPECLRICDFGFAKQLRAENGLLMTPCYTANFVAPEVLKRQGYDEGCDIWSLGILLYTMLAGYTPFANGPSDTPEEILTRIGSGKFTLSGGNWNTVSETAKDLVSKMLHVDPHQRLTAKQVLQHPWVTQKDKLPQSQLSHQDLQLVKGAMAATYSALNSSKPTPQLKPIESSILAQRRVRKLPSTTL
Chain of Serine/threonine-protein kinase PLK1 (P53350 whole entry): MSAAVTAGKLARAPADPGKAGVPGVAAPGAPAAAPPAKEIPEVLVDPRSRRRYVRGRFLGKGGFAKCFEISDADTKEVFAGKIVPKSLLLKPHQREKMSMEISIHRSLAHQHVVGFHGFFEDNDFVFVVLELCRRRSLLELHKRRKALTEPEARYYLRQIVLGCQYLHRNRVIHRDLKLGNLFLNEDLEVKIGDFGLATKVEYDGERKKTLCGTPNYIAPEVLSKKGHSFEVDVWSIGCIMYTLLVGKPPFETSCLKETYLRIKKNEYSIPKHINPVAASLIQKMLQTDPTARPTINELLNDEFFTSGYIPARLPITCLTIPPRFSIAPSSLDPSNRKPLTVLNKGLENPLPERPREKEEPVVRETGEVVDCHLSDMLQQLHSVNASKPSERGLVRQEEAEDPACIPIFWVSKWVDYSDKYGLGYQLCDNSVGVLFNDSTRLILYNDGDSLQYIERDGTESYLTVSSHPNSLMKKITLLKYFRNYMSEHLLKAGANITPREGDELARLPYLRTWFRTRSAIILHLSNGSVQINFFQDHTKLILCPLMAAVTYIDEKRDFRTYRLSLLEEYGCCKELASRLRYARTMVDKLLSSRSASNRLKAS

On to `C[C@H](/C=C\C(F)(F)F)Oc1cc(-c2cc(-c3cc(CN(C)C)cs3)cnc2N)ccc1C(N)=O`, for which the inhibition in experiment [1] is 25%; in [3] it was 11%; in experiment [6], 12%; in [7], 0%; in [8] it was 19%; in experiment [10] it was 89%. Also, the inhibition stood at 29% in experiment [11], 93% in experiment [12] and 46% in [13]. Further, the IC50 in [2] stood at 8.47 µM; in experiment [4], 4.57 µM; in [5], 5.82 µM; in experiment [9] it was 0.84 µM. The GI50 with MCF7 is 2.17 µM.
